Tested on: C57BL/6j bone marrow derived dendritic cells
Test: Seahorse extracellular acidification rate (ECAR) assay in glucose-free media
Assay type: cell-based
Details: PFK15 200 nM, 4 hours
Procedure: F16BP particles rescues glycolysis even in the presence of glycolytic inhibitor PFK15. In order to test if F16BP can indeed functionally accelerate glycolysis in the presence of low glucose environment, extracellular acidification rate (ECAR), which measures changes in extracellular pH due to lactic acid production (a byproduct of glycolysis) was determined using Seahorse assays. In this case, although, C57BL/6j bone marrow derived dendritic cells (DCs, another type of phagocytic cell) were utilized, it is believed that CAR macrophages will behave similarly. Specifically, DCs were treated with PFK15 (200 nM), or F16BP particles (0.1 mg/mL) or PFK15+F16BP particles. After 4 hours of treatment with formulations, changes in pH using ECAR were recorded in glucose-free media. In a step-wise manner cells were added with oligomycin to measure ATP production and proton leak, Carbonyl cyanide-4 (trifluoromethoxy) phenylhydrazone (FCCP—disrupts mitochondrial membrane potential) to measure maximal respiration, rotenone and antimycinA (shuts down mitochondrial respiration) to measure spare capacity.

Q: `O=C(/C=C/c1ccc2ccccc2n1)c1ccncc1` [PFK15] was tested. Which “ECAR values relative to no treatment control” value did it give?
A: The value was “even lower than no treatment control”.
